Experimental data: patent publication US5192760A, “3-carbalkoxyamino-5-(alpha-aminopropionyl)-5H-dibenz[b,f]azepines and method for their making” (priority 1989, dated 1993)
Where two headings read alike, the source gives them in different places.

Experiments:
in vivo [1] = assay: in vivo; design: species or system male or female Wistar rats; conditions: Wistar rat, iv. in tail vein, p=0.05 confidence interval in parentheses
From the text: LD50 iv. is the lethal dose in mg/kg body weight for 50% of the experimental animals of an orientating acute toxicity test on male or female Wistar rats of our own breed, iv. administration in the tail vein, 3-4 dosages, 10 animals per group. Data analyzed by the Probit regression analysis with a confidence interval of p=0.05 (values in parentheses).

Aconitine (rat) = assay: animal or person; type: in vivo, female Wistar rats; conditions: Rattus norvegicus
Experimental: (§1) ED73 iv. and po. are the dose in mg/kg, body weight which inhibits aconitine in female Wistar rats after iv. or po. administration of the test substance up to the occurrence of isolated ventricular extrasystolae. The procedure is also described by K. Femmer et al., in Pharmazie, vol. 31, page 36 (1976). The test substances are administered 2 minutes before the aconitine if given iv., and 60 minutes before the aconitine if given orally. The data is analyzed by the Probit regression analysis with a confidence interval of p=0.05 (values in parentheses).
(§2) Q1 is the ratio of […]. to determine the absorption, and Q2 is the ratio of LD50 iv. /ED73 iv. to determine the therapeutic breadth.

in vivo [2] = type: in vivo, female Wistar rats; conditions: in vivo
Experimental: as §1, §2

[3] = ratio of ED73 po. to ED73 iv., rat aconitine, read-out: Q1 (ED73 po. /ED73 iv.), absorption ratio
[4] = ratio of LD50 iv. to ED73 iv., rat, read-out: Q2 (LD50 iv. /ED73 iv.), therapeutic breadth

| SMILES | LD50 (in vivo [1]) [mg/kg] | ED73 (Aconitine (rat); iv, read-out: ED73 iv.) [mg/kg] | ED73 (Aconitine (rat); po, read-out: ED73 p.o.) [mg/kg] | selectivity ratio (in vivo [2]; [3]) | selectivity ratio (in vivo [2]; [4]) | ED50 (Aconitine (rat); iv, read-out: ED50 iv. (printed in the ED73 p.o. column)) [mg/kg] |
| --- | --- | --- | --- | --- | --- | --- |
| CCCNC(C)C(=O)N1c2ccccc2CCc2ccc(NC(=O)OCC)cc21 (stereo not drawn) [compound 12] | 2.5 | 0.16 | 3.5 | 22 | 16 |  |
| CCNC(C)C(=O)N1c2ccccc2CCc2ccc(NC(=O)OC(C)C)cc21 (stereo not drawn) [compound 7] | 10 | 0.33 | 20 | 61 | 30 |  |
| CCOC(=O)Nc1ccc2c(c1)N(C(=O)C(C)NC)c1ccccc1CC2 (stereo not drawn) [Test No. 4, 3-Carbethoxyamino-5-(α-methylaminopropionyl)-10,11-dihydro-5H-dibenz[b,f]-azepine] | 12 | 0.12 | 19 | 158 | 100 |  |
| CCOC(=O)Nc1ccc2c(c1)N(C(=O)C(C)N(C)C)c1ccccc1CC2 (stereo not drawn) [Test No. 1] | 20 | 2.4 | 24 | 10 | 8 |  |
| CCNC(C)C(=O)N1c2ccccc2CCc2ccc(NC(=O)OCC)cc21.Cl (stereo not drawn) [Test No. 5, 3-carbethoxyamino-5-(α-ethylaminopropionyl)-10,11-dihydro-5H-dibenz[b,f]azepine hydrochloride] | 9.3 | 0.16 | 7 | 44 | 39 |  |
| CCOC(=O)Nc1ccc2c(c1)N(C(=O)C(C)N)c1ccccc1CC2 (stereo not drawn) [compound 13] | 21 | 0.31 | 14 | 45 | 68 |  |
| CCOC(=O)Nc1ccc2c(c1)N(C(=O)C(C)N(CC)CC)c1ccccc1CC2 (stereo not drawn) [Test No. 2] | 12 | 1.3 | 11 | 9 | 9 |  |
| Cc1cccc(C)c1OCC(C)N (stereo not drawn) [Mexiletin, reference compound] |  | 15 |  |  |  | 91 |
| COC(=O)Nc1ccc2c(c1)N(C(=O)C(C)NCCO)c1ccccc1CC2 (stereo not drawn) [compound 9] | 55 | 4 |  |  | 14 |  |
| CCOC(=O)Nc1ccc2c(c1)N(C(=O)CCN1CCOCC1)c1ccccc1S2 [Moracizin, reference compound] |  | 1.1 | 112 | 102 | 10 |  |
| CCOC(=O)Nc1ccc2c(c1)N(C(=O)C(C)N1CCOCC1)c1ccccc1CC2 (stereo not drawn) [Test No. 3] | > 70 | 47 | > 80 |  | ~2 |  |
| CNC(C)C(=O)N1c2ccccc2CCc2ccc(NC(=O)OC)cc21 (stereo not drawn) [compound 8] | 24 | 0.86 | 14 | 16 | 28 |  |
| CCOC(=O)Nc1ccc2c(c1)N(C(=O)C(C)NC)c1ccccc1C=C2 (stereo not drawn) [compound 10] | 14 | 0.75 | 4.9 | 6.5 | 19 |  |
| CNC(C)C(=O)N1c2ccccc2CCc2ccc(NC(=O)OC(C)C)cc21 (stereo not drawn) [compound 6] | 21 | 0.55 | 12 | 22 | 38 |  |
| CCNC(C)C(=O)N1c2ccccc2C=Cc2ccc(NC(=O)OCC)cc21 (stereo not drawn) [compound 11] | 14 | 0.8 | 14 | 18 | 18 |  |
| CCOC(=O)Nc1ccc2c(c1)N(C(=O)CN(C)C)c1ccccc1CC2 [Bonnecor, 3carbethoxyamino-5-dimethylaminoacetyl-10,11-dihydro-5H-dibenz[b,f,]azepine, reference compound] |  | 0.28 | 5.7 | 20 | 39 |  |
